Laboratory results as given in PubChem BioAssay (NCI).
Values joined by “and” are separate entries in the source; they are usually repeats but may differ in a detail not shown here. Equal values may be shown once.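 These data come from cells grown in 96-well plates and exposed to compound for 48 hours at five concentrations. GI50 is the concentration that inhibits growth by half. TGI is the concentration that stops growth completely.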

Assays:
Experiment in all cases: NCI-60 cell line screen, 48 h
HCT-15 colon = test system: HCT-15 colon
NCI/ADR-RES ovarian = test system: NCI/ADR-RES ovarian
RPMI-8226 leukemia = test system: RPMI-8226 leukemia
SW-620 colon = test system: SW-620 colon
T-47D breast = test system: T-47D breast
UACC-62 melanoma = test system: UACC-62 melanoma
UO-31 renal = test system: UO-31 renal
HCC-2998 colon = test system: HCC-2998 colon
SNB-75 CNS = test system: SNB-75 CNS

Row | SMILES | TGI (HCT-15 colon) | TGI (NCI/ADR-RES ovarian) | TGI (RPMI-8226 leukemia) | TGI (SW-620 colon) | TGI (T-47D breast) | TGI (UACC-62 melanoma) | TGI (UO-31 renal) | TGI (HCC-2998 colon) | TGI (SNB-75 CNS) | GI50 (HCC-2998 colon) | GI50 (HCT-15 colon) | GI50 (NCI/ADR-RES ovarian) | GI50 (RPMI-8226 leukemia) | GI50 (SNB-75 CNS) | GI50 (SW-620 colon) | GI50 (T-47D breast) | GI50 (UACC-62 melanoma) | GI50 (UO-31 renal)
1 | COc1cc(C(=O)CBr)c(OC)cc1C | > 100 µM | > 100 µM | > 100 µM | > 100 µM | > 100 µM | > 100 µM | > 100 µM | – | – | – | – | – | – | – | – | – | – | –
2 | O=C(CC1(O)C(=O)Nc2c(Cl)ccc(Cl)c21)c1ccc(F)cc1 (stereo not drawn) | > 100 µM | – | 47.9 µM | > 100 µM | – | – | > 100 µM | > 100 µM | 74.7 µM | – | – | – | – | – | – | – | – | –
3 | CCOC(=O)/C(=C\c1ccccc1)C(=O)O | > 100 µM | – | > 100 µM | > 100 µM | – | > 100 µM | > 100 µM | > 100 µM | – | – | – | – | – | – | – | – | – | –
4 | CCCCCCCC(=O)OCC/C=C/C1OC1C1OC(=O)/C=C\C=C\c2nc(oc2C)/C=C(/C)CCC2OC2C1OC(=O)NC(C)=O (stereo not drawn) | 8.88 µM | 1.88 µM | 1.04 µM | 1.07 µM | 0.161 µM | 0.0808 µM | – | 0.0739 µM | 0.0765 µM | 0.0208 µM | 0.0558 µM | 0.165 µM | 0.0241 µM | 0.0277 µM | 0.0393 µM | 0.042 µM | 0.0316 µM | –
5 | CC(C)(CO)N1CCN(C(=S)Nc2ccccc2)CC1 | > 100 µM | > 100 µM | > 100 µM | > 100 µM | > 100 µM | > 100 µM | > 100 µM | – | > 100 µM | – | – | – | – | – | – | – | – | –
6 | O=C(CC1C(=O)NN(c2ccc(Br)cc2)C1=O)c1cc(O)ccc1O (stereo not drawn) | 20 µM | > 50 µM | > 50 µM | > 50 µM | – | 27.7 µM | > 50 µM | – | > 50 µM | – | 8.5 µM | 19.6 µM | 16.5 µM | 24.8 µM | 17.9 µM | – | 12 µM | 41.2 µM
7 | Cc1cc(-c2cnn3c(NCC4CC(C)(O)C4)cc(Oc4cccnc4)nc23)ccc1C(=O)NC1CC1 (stereo not drawn) | > 100 µM | > 100 µM | – | > 100 µM | – | > 100 µM | > 100 µM | – | > 100 µM | – | 0.706 µM | > 100 µM | – | 2.11 µM | 0.591 µM | – | 2.67 µM | 2.02 µM
8 | Cc1c(C(=O)C/C(=N/NC(=O)C[N+](C)(C)C)C(=O)Nc2ccc(Cl)cc2)[n+](=O)c2ccccc2n1O | > 100 µM | – | > 100 µM | > 100 µM | – | > 100 µM | > 100 µM | > 100 µM | > 100 µM | – | – | – | – | – | – | – | – | –
9 | CC(SC(=S)N1CCOCC1)c1cc2oc(=O)n(C)c2cc1Cl (stereo not drawn) | > 100 µM | – | > 100 µM | > 10 µM | – | > 100 µM | > 100 µM | > 100 µM | > 100 µM | – | – | – | – | – | – | – | – | –
10 | Cc1cc(N(CCC#N)CCC#N)ccc1/C=C1\N=C(c2cc([N+](=O)[O-])ccc2Cl)N(c2cccc(Cl)c2)C1=O | > 100 µM | – | > 100 µM | > 100 µM | – | > 100 µM | > 100 µM | > 100 µM | > 100 µM | – | – | – | – | – | – | – | – | –
11 | CC(=O)O[C@H]1C(=O)[C@@]2(C)C(C(OC(=O)c3ccccc3)[C@]3(O)CC(OC(=O)[C@H](OC(=O)CCC(=O)O)C(NC(=O)c4ccccc4)c4ccccc4)C(C)=C1C3(C)C)C1(OC(C)=O)COC1C[C@@H]2O (stereo partly drawn) | > 100 µM | 61.9 µM and > 72.3 µM | < 0.01 µM | > 100 µM | > 100 µM | – | > 100 µM | > 100 µM and 20.3 µM | – | – | – | 8.73 µM and 17.7 µM | – | 0.022 µM and 0.076 µM | – | – | – | 14 µM and 61.4 µM
12 | O=[N+]([O-])c1ccc(C=NC2CCCCC2)cc1 | > 100 µM | – | – | > 100 µM | – | > 100 µM | > 100 µM | > 100 µM | > 100 µM | – | – | – | – | – | – | – | – | –
13 | O=C(CCN(C(=O)O)S(=O)(=O)c1ccc(NC(=O)c2ccccc2)cc1)NC1CCCCC1 | > 100 µM | – | 41.8 µM | 33.1 µM | – | > 100 µM | > 100 µM | > 100 µM | > 100 µM | – | – | – | – | – | – | – | – | –
14 | Cc1ccc(-c2nc3nc(-c4ccccc4)nc(N4CCCNCC4)c3o2)cc1 | 3.23 µM | 4.71 µM | – | 3.17 µM | 3.5 µM | 3.14 µM | 2.96 µM | 4.17 µM | 2.68 µM | 2.04 µM | 1.58 µM | 2.17 µM | – | 1.36 µM | 1.55 µM | 1.73 µM | 1.68 µM | 1.55 µM
15 | CCCC(=O)OCC1OC(n2cnc3c(=S)nc[nH]c32)C(OC(=O)CCC)C1OC(=O)CCC (stereo not drawn) | > 100 µM | > 100 µM | – | > 100 µM | > 100 µM | > 100 µM | > 100 µM | > 100 µM | > 100 µM | 2.92 µM | 7.22 µM | 8.15 µM | – | 4.04 µM | 4.59 µM | 0.794 µM | 1.91 µM | 7.53 µM
16 | O/N=C/c1ncccc1C1OCCO1 | > 100 µM | – | – | > 100 µM | – | > 100 µM | > 100 µM | – | > 100 µM | – | – | – | – | – | – | – | – | –
17 | CC1OC(OC2C(OC(=O)[C@]34CCC(C)(C)CC3C3=CCC5[C@@]6(C)C[C@H](O)[C@H](OC7OC(CO)C(O)C(O)C7N)[C@@](C)(C(=O)O)C6CC[C@@]5(C)C3(C)CC4)OCC(O)C2O)C(O)C(O)C1OC1OCC(O)C(O)C1O (stereo partly drawn) | > 100 µM | – | > 100 µM | > 100 µM | – | > 100 µM | > 100 µM | > 100 µM | > 100 µM | – | – | – | – | – | – | – | – | –
18 | O=C1c2ccccc2C(=O)N1CCc1ncc[nH]1 | > 100 µM | > 100 µM | > 100 µM | > 100 µM | > 100 µM | > 100 µM | > 100 µM | – | – | – | – | – | – | – | – | – | – | –
19 | O=C(O)CCSC(=O)Nc1ccc([N+](=O)[O-])cc1 | > 100 µM | – | > 100 µM | > 100 µM | – | – | > 100 µM | > 100 µM | 64.7 µM | – | – | – | – | – | – | – | – | –
20 | COc1ccc2c(c1)[n+](=O)c(C(=O)C/C(=N/OCCCc1ccccc1)C(=O)NC13CC4CC(CC(C4)C1)C3)c(C)n2[O-] | > 100 µM | – | > 100 µM | > 100 µM | – | > 100 µM | > 100 µM | > 100 µM | > 100 µM | – | – | – | – | – | – | – | – | –
21 | Nc1cccc(S(=O)(=O)NCC(=O)O)c1 | > 100 µM | – | > 100 µM | > 100 µM | – | > 100 µM | > 100 µM | > 100 µM | > 100 µM | – | – | – | – | – | – | – | – | –
22 | COC1(OC)CC2OC1C1N=NN(C(=O)OC(C)(C)C)C21 (stereo not drawn) | > 100 µM | – | > 100 µM | > 100 µM | – | > 100 µM | > 100 µM | > 100 µM | > 100 µM | – | – | – | – | – | – | – | – | –
23 | CC(=O)OCC1OC(NC(=S)N/N=C2\CC(c3ccccc3)Oc3ccccc32)C(OC(C)=O)C(OC(C)=O)C1OC(C)=O (stereo not drawn) | > 100 µM | – | > 100 µM | > 100 µM | – | > 100 µM | > 100 µM | > 100 µM | > 100 µM | – | – | – | – | – | – | – | – | –
